Data set [1] addresses T1, human MAO-A (Homo sapiens, UniProt P21397).
T1 construct: purchased Sigma Aldrich; host or cells: insect cells infected with baculovirus (microsomes)
T1 sequence (P21397 1-527): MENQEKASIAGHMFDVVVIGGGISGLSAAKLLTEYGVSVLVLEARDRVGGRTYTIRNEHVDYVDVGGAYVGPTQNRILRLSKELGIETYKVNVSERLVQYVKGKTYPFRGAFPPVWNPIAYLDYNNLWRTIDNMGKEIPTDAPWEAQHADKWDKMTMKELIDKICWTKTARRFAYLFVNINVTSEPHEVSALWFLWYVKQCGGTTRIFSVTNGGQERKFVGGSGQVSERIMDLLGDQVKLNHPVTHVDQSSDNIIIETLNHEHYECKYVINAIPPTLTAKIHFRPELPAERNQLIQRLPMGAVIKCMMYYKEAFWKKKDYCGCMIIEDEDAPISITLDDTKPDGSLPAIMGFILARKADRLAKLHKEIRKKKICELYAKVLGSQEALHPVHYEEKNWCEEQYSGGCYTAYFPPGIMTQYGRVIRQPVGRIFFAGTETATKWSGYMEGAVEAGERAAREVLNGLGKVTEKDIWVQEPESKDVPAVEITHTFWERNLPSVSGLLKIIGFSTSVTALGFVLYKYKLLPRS
The experiment in a line: Inhibition kinetics and time course of MAO-A inhibition. The note with it: for reversibility of MAO-A inhibition: time course, absorbance of 4-hydroxyquinoline at 316 nm, inhibitor close to IC50. The class given is biochemical. From the text:
For the sake of clarity, the position of the Mannich base (-CH2NR2) on the main coumarin core will be indicated as C8, whereas the positions of Cl or Br and OMe on the 4-coumarin-3-yl moiety will be indicated as C6′ and C8′.
Time courses of MAO-A inhibition by 2b and 5b, using a spectrophotometric assay measuring the absorbance of 4-
(1 picture or pasted object on this page, not shown here)

The target of data set [2] is T2, human huMAO-B (Homo sapiens, UniProt P27338).
T2 construct: purchased Sigma Aldrich; host or cells: insect cells infected with baculovirus (microsomes)
T2 sequence (P27338 1-520): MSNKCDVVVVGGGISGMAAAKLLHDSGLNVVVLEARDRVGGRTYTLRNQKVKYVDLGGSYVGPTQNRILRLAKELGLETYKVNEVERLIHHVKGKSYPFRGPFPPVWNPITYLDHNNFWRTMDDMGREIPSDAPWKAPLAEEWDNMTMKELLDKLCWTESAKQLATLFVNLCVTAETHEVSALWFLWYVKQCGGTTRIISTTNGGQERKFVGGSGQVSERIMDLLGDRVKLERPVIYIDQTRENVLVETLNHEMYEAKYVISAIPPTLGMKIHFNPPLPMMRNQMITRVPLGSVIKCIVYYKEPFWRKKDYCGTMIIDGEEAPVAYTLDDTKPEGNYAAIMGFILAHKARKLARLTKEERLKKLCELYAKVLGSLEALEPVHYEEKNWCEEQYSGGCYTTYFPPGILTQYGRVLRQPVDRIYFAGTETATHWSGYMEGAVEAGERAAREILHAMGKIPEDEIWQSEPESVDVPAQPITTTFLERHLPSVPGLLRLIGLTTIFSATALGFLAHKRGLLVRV
Briefly: biochemical. The format is biochemical. Particulars: for inhibition at 10 µM / huMAO-B % inhibition: at 10 µM concentration, mean ± SD. On the procedure: (§1) The inhibition assays of human monoamine oxidases were conducted using a fluorescence-based method with kynuramine as a non-selective substrate for each isoform, MAO-A/B [44, 45, 46]. Recombinant human MAO-A and MAO-B (microsomes from insect cells infected with baculovirus; Sigma Aldrich, St. Louis, MO, USA) (Merk Life Science S.r.l., Milan, Italy) were used. The measurements were performed in triplicate in black round-bottom polystyrene 96-well plates (Greiner Bio-One, Kremsmünster, Austria). […] In the MAO inhibition assays, all compounds were initially screened at a concentration of 10 µM. Each of them was preincubated at 37 °C for 20 min with 50 µM kynuramine in a phosphate buffer (PBS, 0.1 M, pH 8.0), adjusted to 0.39 osmolarity with KCl. After adding recombinant human MAO-A/B (250 U/mg and 59 U/mg, respectively) and incubating for another 30 min, NaOH was added. The fluorescence was measured at excitation/emission wavelengths of 310/400 nm. […] The IC50 is reported as the mean ± SD of three independent experiments, each performed in duplicate.

Data set [3] addresses T3, electric eel eeAChE (Electrophorus electricus, UniProt O42275).
T3 construct: Acetylcholinesterase from electric eel and butyrylcholinesterase from equine serum (Sigma Aldrich) were employed; purchased Sigma Aldrich; host or cells: electric eel (natural source)
Briefly: biochemical. Particulars: for inhibition at 10 µM / eeAChE % inhibition: at 10 µM concentration, mean ± SD; for IC50: mean ± SD of three independent determinations, ~10 means 50–60% inhibition at 10 µM.

Data set [4] addresses T4, horse serum eqBChE (Equus caballus, UniProt P81908).
T4 construct: Acetylcholinesterase from electric eel and butyrylcholinesterase from equine serum (Sigma Aldrich) were employed; purchased Sigma Aldrich; host or cells: equine serum
The experiment in a line: biochemical. The format is biochemical. Particulars: for inhibition at 10 µM / eqBChE % inhibition / eqBChE inhibition class: at 10 µM concentration. On the procedure:
(§2) Cholinesterase inhibition assays were carried out using the Ellman spectrophotometric method, modified for a 96-well plate format. Acetylcholinesterase from electric eel and butyrylcholinesterase from equine serum (Sigma Aldrich) were employed. The measurements were performed in triplicate using clear, flat-bottom polystyrene plates (Greiner Bio-One).

Data set [5] can be described thus: Kinetic solubility in aqueous buffers (RP-HPLC). The format is physicochemical. Particulars: PBS buffer, 25 °C, pH 7.4, aqueous buffer, kinetic from dmso stock, PBS (50 mM, pH 7.4, 0.15 M KCl) at 25 ± 1 °C, n = 3; read-out: Solubility Exp. The method, then: Water solubility and lipophilicity parameters were measured following previously reported methods. […] The mixture was then separated by centrifugation at 2500 rpm for 3 min. Immediately after filtration, 100 µL of the filtrate was mixed with an equal volume of a 1:1 (v/v) DMSO and PBS (50 mM, pH 7.4, KCl 0.15 M) or HCl (0.01 M, pH 2, KCl 0.15 M) solution to prevent precipitation from the saturated solution and subsequently analyzed by HPLC. The peak area was compared to a calibration curve of the tested compound in MeOH. The analytical parameters were set as follows. Mobile phase: MeOH/water pH 2.8 (acetic acid 0.5% v/v) at different percentages depending on the retention time of each test compound; stationary phase: Phenomenex, Kinetex 5 µ, C8, (150 × 3 mm); flux: […]; injection: 2 µL; λ 330 nm. The analyses were performed on the Agilent HPLC 1260 Infinity Series Integrated System (Agilent Technologies, Milan, Italy).

Data set [6] in a line: Lipophilicity by RP-HPLC (log k'w). The format is physicochemical. Particulars: C18, extrapolated to 100% water mobile phase. The method, then:
The lipophilicity of the five compounds in Table 4 was assessed by calculation and experimental approaches. As a calculated lipophilicity parameter (log Pcalc), we took from the SwissADME free website (http://www.swissadme.ch) the ‘Consensus Log Po/w’, that is, the arithmetic mean of octanol/water log Ps calculated by five methods (iLOGP, XLOGP3, WLOGP, MLOGP, and SILICOS-IT).
The lipophilicity parameters were determined by an RP-HPLC technique. In short, methanolic solutions of the examined compounds (1 mg·mL^−1) were analyzed by the Agilent 1260 infinite HPLC system (Agilent Technologies, Milan, Italy) equipped with a diode array detector (DAD), using a Phenomenex C18-column (Kinetex 5 μ, 100 Å, 150 × 3 mm) as the stationary phase and MeOH/water buffer mobile phases with different v/v composition (i.e., mobile phases containing 0.05 increments of MeOH volume fractions in 10 mM ammonium formate buffer at pH 4.5; φMeOH ranging between 0.70 and 0.20). The chromatographic measurements were carried out at 25 ± 1 °C, flow rate of 0.5 mL·min^−1, and detection at λ 330 nm. The log of capacity factors of each compound at different mobile phase compositions was calculated (log k′ = log (tR − t0)/t0, where tR represents the retention time of the solute and t0 is the column dead time). For each compound, the equation of the linear relationship between log k′ and φMeOH (R^2 > 0.991) on at least five datapoints, each from duplicate, was derived by regression analysis and the intercept at the y-axis (i.e., φMeOH = 0) calculated as the lipophilicity parameter log k′w.

In data set [7] the target is T1, human MAO-A. The experiment in a line: biochemical. The format is biochemical. Particulars: for inhibition at 10 µM / huMAO-A % inhibition: at 10 µM concentration, mean ± SD; for IC50: mean ± SD of three independent determinations, ~10 means 50–60% inhibition at 10 µM. On the procedure:
as §1

The target in data set [8] is human huAChE (Homo sapiens, UniProt P22303). The experiment in a line: biochemical. The class given is biochemical. The method, then:
The inhibition of human huAChE was also evaluated for five compounds.
as §2

Where [9] appears, read: mean ± SD, read-out: eqBChE % inhibition.
Setting [10] is: mean ± SD of three independent determinations, ~10 means 50–60% inhibition at 10 µM.

The values below come from PMC12562640, “Investigating Amphoteric 3,4′-Biscoumarin-Based ortho-[(Dialkylamino)methyl]phenols as Dual MAO and ChE Inhibitors” (International Journal of Molecular Sciences, 2025).

≈ marks a conversion by molar mass, not a printed value. Where “and” joins values, the source holds several entries; their conditions need not be identical. Identical values can stand only once. Like-named read-outs stand apart in the source and are kept apart here. Where only a bound is given, the exact number is not on record here.

T3 sequence (O42275 24-633): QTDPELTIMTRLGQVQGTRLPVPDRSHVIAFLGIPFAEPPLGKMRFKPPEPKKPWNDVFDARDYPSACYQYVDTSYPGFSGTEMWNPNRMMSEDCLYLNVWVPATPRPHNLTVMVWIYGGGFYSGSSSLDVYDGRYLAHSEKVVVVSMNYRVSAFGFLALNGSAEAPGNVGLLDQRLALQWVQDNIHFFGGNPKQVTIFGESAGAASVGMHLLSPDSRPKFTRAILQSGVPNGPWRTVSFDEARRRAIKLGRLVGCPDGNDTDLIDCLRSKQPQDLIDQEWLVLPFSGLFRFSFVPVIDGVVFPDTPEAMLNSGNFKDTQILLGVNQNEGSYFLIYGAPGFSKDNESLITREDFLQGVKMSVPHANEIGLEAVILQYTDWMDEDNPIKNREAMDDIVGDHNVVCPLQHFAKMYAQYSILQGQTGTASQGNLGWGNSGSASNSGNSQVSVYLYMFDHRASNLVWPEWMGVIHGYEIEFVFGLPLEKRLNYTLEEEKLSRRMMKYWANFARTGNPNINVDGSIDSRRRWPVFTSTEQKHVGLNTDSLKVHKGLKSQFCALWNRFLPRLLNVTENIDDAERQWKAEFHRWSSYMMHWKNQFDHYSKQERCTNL
T4 sequence (P81908 whole entry): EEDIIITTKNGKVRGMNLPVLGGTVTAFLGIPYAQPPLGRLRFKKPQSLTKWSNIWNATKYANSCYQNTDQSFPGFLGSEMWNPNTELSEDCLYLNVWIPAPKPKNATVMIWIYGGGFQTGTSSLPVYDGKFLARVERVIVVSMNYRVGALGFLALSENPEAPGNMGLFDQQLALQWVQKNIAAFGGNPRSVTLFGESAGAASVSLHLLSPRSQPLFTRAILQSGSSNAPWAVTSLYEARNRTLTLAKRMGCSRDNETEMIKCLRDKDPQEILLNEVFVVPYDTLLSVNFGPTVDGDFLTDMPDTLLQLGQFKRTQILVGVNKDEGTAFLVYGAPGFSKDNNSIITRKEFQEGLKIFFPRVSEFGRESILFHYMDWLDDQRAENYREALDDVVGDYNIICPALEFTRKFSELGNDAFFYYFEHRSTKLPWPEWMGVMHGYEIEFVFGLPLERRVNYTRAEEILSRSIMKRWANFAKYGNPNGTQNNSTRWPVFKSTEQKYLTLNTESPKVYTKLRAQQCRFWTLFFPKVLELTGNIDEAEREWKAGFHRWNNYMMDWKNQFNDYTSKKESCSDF
Chain of human huAChE (P22303 32-614): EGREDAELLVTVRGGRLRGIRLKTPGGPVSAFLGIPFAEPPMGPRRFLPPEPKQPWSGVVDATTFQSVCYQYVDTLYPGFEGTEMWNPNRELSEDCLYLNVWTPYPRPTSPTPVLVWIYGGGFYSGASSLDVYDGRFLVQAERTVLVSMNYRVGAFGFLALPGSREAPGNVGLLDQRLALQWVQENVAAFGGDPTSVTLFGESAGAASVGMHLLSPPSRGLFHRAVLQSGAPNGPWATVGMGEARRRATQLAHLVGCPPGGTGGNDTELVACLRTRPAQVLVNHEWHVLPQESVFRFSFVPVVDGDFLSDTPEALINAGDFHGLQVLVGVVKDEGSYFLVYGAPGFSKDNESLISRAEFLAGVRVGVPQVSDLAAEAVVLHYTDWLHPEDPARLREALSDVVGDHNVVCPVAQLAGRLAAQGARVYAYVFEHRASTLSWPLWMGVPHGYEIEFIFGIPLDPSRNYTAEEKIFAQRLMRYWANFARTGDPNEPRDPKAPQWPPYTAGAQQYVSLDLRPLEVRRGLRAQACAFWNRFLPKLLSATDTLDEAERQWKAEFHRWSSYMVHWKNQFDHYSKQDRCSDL

On to `C#CCN(C)CCCOc1ccc(Cl)cc1Cl` [Clorgiline, reference compound], for which the “reversibility of MAO-A inhibition” value in data set [1] is given as “completely flattened”.

Turning to `COc1cccc2cc(-c3cc(=O)oc4c(CN(C)C)c(O)ccc34)c(=O)oc12` [Compound 2d, 8-((dimethylamino)methyl)-4-(8-methoxy-2-oxo-2H-chromen-3-yl)-7-hydroxy-2H-chromen-2-one], the values for the inhibition at 10 µM in data set [2], in data set [3] and in data set [4] (setting [9]) were 28%, 39% and 25%, respectively. Moreover, the solubility at 2 h in data set [5] was 196 µM (≈ 77.1 µg/mL). Also, in data set [6], the “Log k’w (polycratic capacity factor)” value is on record as 2.32.

For `CCCN(CCC)Cc1c(O)ccc2c(-c3cc4ccccc4oc3=O)cc(=O)oc12` [Compound 4a], the inhibition at 10 µM is 29% in data set [7], 33% in data set [2], 37% in data set [3] and 22% in data set [4] (setting [9]).

For the molecule `CCCN(CCC)Cc1c(O)ccc2c(-c3cc4cccc(OC)c4oc3=O)cc(=O)oc12` [Compound 4d, 8-((dipropylamino)methyl)-4-(8-methoxy-2-oxo-2H-chromen-3-yl)-7-hydroxy-2H-chromen-2-one], the inhibition at 10 µM is 29% in data set [7], 43% in data set [2] and 14% in data set [4] (setting [9]). The half-maximal inhibitory concentration (IC50) in data set [3] was < 10 µM and 3.05 µM; in data set [8], 0.97 ± 0.2 µM.

With `CCCCN(C)Cc1c(O)ccc2c(-c3cc4cc(Cl)ccc4oc3=O)cc(=O)oc12` [Compound 5b], the IC50 was 1.85 ± 0.11 µM in data set [7], roughly 10 µM in data set [2] (setting [10]) and roughly 10 µM in data set [8] (setting [10]). Also, the eeAChE % inhibition entry in data set [3] was “[25 ± 5] %”. For the same molecule, in data set [4] (mean ± SD), the eqBChE % inhibition entry is “[17 ± 7] %”. Moreover, in data set [1] (Michaelis–Menten and Lineweaver–Burk plots), the “mode of inhibition of MAO-A” value is recorded as “competitive”. Moreover, in data set [1] (human MAO-A, competitive inhibition, read-out: inhibition constant (Ki) MAO-A), the Ki stood at 0.326 µM. For the same molecule, the “reversibility of MAO-A inhibition” value in data set [1] is “reversible”.

Take `CCCCN(C)Cc1c(O)ccc2c(-c3cc4cccc(OC)c4oc3=O)cc(=O)oc12` [Compound 5d, 8-((butyl(methyl)amino)methyl)-4-(8-methoxy-2-oxo-2H-chromen-3-yl)-7-hydroxy-2H-chromen-2-one]: the inhibition at 10 µM is 39% in data set [7] and 40% in data set [4] (setting [9]). In addition, the concentration for half-maximal inhibition (IC50) in data set [2] is roughly 10 µM; in data set [3], < 10 µM and 7.8 µM.

Consider `COCCN(CCOC)Cc1c(O)ccc2c(-c3cc4cc(Cl)ccc4oc3=O)cc(=O)oc12` [Compound 6b], for which the huMAO-A % inhibition entry in data set [7] is “[45 ± 3] %”. The huMAO-B % inhibition entry in data set [2] was “[35 ± 9] %”. Moreover, the eeAChE % inhibition result in data set [3] is “[16 ± 4] %”. For the same molecule, the eqBChE inhibition class entry in data set [4] was “i.a. (compounds displaying average % inhibition less than 10% at 10 µM concentration)”.

On to `COCCN(CCOC)Cc1c(O)ccc2c(-c3cc4cccc(OC)c4oc3=O)cc(=O)oc12` [Compound 6d, 8-((bis(2-methoxyethyl)amino)methyl)-4-(8-methoxy-2-oxo-2H-chromen-3-yl)-7-hydroxy-2H-chromen-2-one], for which the inhibition at 10 µM in data set [7] is 26%; in data set [2], 31%; in data set [3], 20%; in data set [4] (read-out: eqBChE inhibition class) it was less than 10%.

For `COc1cccc2cc(-c3cc(=O)oc4c(CN(CC(C)C)CC(C)C)c(O)ccc34)c(=O)oc12` [Compound 7d], the huMAO-A % inhibition result in data set [7] was “[27 ± 3] %”. For the same molecule, the huMAO-B % inhibition entry in data set [2] is “[31 ± 2] %”. The same molecule returned an IC50 in data set [3] of roughly 10 µM. In data set [4] (mean ± SD), the eqBChE % inhibition entry was “[34 ± 3] %”.

Molecule `CN(Cc1ccccc1)Cc1c(O)ccc2c(-c3cc4cc(Cl)ccc4oc3=O)cc(=O)oc12` [Compound 8b] displayed a 50% inhibitory concentration (IC50) in data set [7] of roughly 10 µM. Also, in data set [2], the huMAO-B % inhibition result is “[38 ± 3] %”. In addition, the eeAChE % inhibition result in data set [3] is “[16 ± 6] %”. Further, the eqBChE inhibition class result in data set [4] is on record as “i.a. (compounds displaying average % inhibition less than 10% at 10 µM concentration)”.

As to `COc1cccc2cc(-c3cc(=O)oc4c(CN(C)Cc5ccccc5)c(O)ccc34)c(=O)oc12` [Compound 8d], in data set [7], the huMAO-A % inhibition result is “[31 ± 4] %”. In addition, the huMAO-B % inhibition entry in data set [2] was “[42 ± 3] %”. The IC50 in data set [3] and in data set [4] (setting [10]) was roughly 10 µM throughout.
